These results are taken from patent US20150218516A1, “COMPOSITIONS AND METHODS FOR ENHANCING IMMUNE RESPONSES MEDIATED BY ANTIGEN-PRESENTING CELLS” (The Board of Regents of the University of Nebraska, priority 2007, published 2015).

One may read the EC50 as the concentration needed to bring the measured effect to its halfway point. Read a high EC50 as a need for much substance.

Non-standard residues stand in square brackets, D forms with d. Residues, ends and D or L forms follow the SMILES beside them. Where only a bound is given, the exact number is not on record here.

One data set relates to κR(33-52) peptide. Nature of the data set: Peptide-specific ELISA of serum and protein A-purified antibody from immunized rabbits. It counts as in vivo. The method, then:
Rabbits were immunized s.c. with 500 μg of […]aR (SEQ ID NO: 10) construct in complete Freund's adjuvant (GIBCO, Grand Island, N.Y.) on day 0 followed by booster injections on days 30 and 60 in incomplete Freund's adjuvant. Serum was collected starting 75 days after the initial immunization.
The presence of anti-peptide antibody was determined by using a peptide specific ELISA utilizing the free κR(33-52) peptide as previously described (Morgan et al. (1993) J. Immunol., 151: 377). Anti-κR(33-52) and normal rabbit γ-globulin (RGG) were purified by protein A Sepharose chromatography (Sigma) (Morgan et al. (1993) J. Immunol., 151: 377) prior to use.
A general note: An ELISA detects its analyte on a solid surface through an enzyme-linked reagent.

The next data set has as its system SKRC-1. The conditions noted are these: low G250 expression; cord blood T lymphocytes. Here is the method:
(§1) An exemplary in vitro cytotoxicity assay comprises the following steps. Antigen presenting cells, such as dendritic cells, were obtained from bone marrow or blood. Dendritic cells were preferentially differentiated in culture through the addition of IL-4, GM-CSF, and TNFα for 7-10 days. Dendritic cells were then pulsed with peptides for 18 hours. MNCs were also isolated from spleens or blood (e.g., cord or peripheral) and cultured in IL-2 and GM-CSF for 7-10 days for enhanced lymphocyte proliferation. The pulsed dendritic cells were then co-cultured with the lymphocyte-enriched MNCs at a 1:10 ratio for 4 days. Lymphocyte-enriched MNC effector cells were then co-cultured with tumor target cells labeled with the bioactive fluorescent dye Calcein AM for 4 hours. Lysed cells were detected by photometrically measuring the released fluorescent dye.
(§2) Certain renal cell carcinomas express the tumor antigen G250. […] The fusion peptide was administered to APCs which were subsequently presented for 4 days to a lymphocyte-enriched population from cord blood as described hereinabove in Example 6.

The next data set has as its system SKRC-52. The conditions noted are these: cord blood T lymphocytes, dendritic cells exposed to the peptide. Here is the method: as §1, §2
In data set [1] the test system is A-375 cell line (melanoma). It counts as cell-based, human. Here is the method: The tumor peptide antigen tyrosinase is expressed on more than 70% of human melanoma cells that are human leukocyte antigen (HLA) A2 positive. […] The dendritic cells, presumably expressing the tyrosinase epitope, were then cultured with a lymphocyte-enriched cell population which was then cultured with melanoma cells to determine melanoma cell killing using a cytotoxic T lymphocyte assay.

Another data set concerns BEAS-2B epithelial cells. Here is the method:
as §1
(§3) Certain prostate carcinomas express prostate-specific membrane antigen (PSMA). […] The fusion peptides were administered to APCs which were subsequently presented to a lymphocyte-enriched population from cord blood as described hereinabove in Example 6. After antigen presentation by pulsed DC in co-culture, CTLs were tested for their ability to lyse three different target cell monolayers in an in vitro cytotoxicity assay. […] The fusion peptides were also administered to APCs which were subsequently presented to a adult peripheral blood-derived CTLs. In vitro cytotoxicity against the human prostate cancer cell line LNCaP was then assessed using the bioactive fluorescent dye calcein AM (FIG. 11D).

The test system of a further data set is LNCaP cells. Here is the method:
as §1, §3

The subject of a further data set is human umbilical artery. Put plainly: Smooth muscle contraction of human umbilical artery. It is filed as cell-based. The conditions noted are these: for EC50: concentration resulting in 50% maximum contraction; for pD2 ± SE: −log EC50 (M), mean ± SE, n=3. The method, then: (§4) Statistical analysis of the values obtained from pharmacologic assays was performed using one-way analysis of variance (ANOVA).

Another data set deals with human PMNs. Nature of the data set: MPO release from human PMNs. It counts as cell-based. The conditions noted are these: for pD2 ± SE: −log EC50 (M), mean ± SE, n=3. Here is the method: as §4
Another data set addresses T1, C5aRs on Human PMNs (Homo sapiens, UniProt P21730).
T1 construct: endogenous in cells; host or cells: intact human PMNs (polymorphonuclear leukocytes)
T1 sequence (P21730 1-350): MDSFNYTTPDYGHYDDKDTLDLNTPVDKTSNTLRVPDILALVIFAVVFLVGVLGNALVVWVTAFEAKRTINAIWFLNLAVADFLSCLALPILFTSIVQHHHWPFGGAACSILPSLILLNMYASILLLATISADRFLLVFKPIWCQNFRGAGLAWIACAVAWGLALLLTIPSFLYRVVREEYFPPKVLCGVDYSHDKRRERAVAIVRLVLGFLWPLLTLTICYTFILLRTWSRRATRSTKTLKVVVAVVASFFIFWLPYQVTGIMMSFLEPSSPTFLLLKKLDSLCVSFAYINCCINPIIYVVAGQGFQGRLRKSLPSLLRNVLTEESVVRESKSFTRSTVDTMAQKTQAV
Put plainly: Competition assay with 125I-C5a for C5aR binding on intact human PMNs. Here is the method: C5a-like agonistic activity was assessed by the ability of the peptides to induce smooth muscle contraction of human umbilical artery and MPO release from human PMNs according to previously published methods (Sanderson et al., 1994, supra; Sanderson et al., J. Med. Chem. 38, 3669, 1995; Finch et al., J. Med. Chem. 40, 877, 1997). Full concentration-response curves were generated for individual peptides and natural C5a in each assay and the EC50 values (the concentration of peptide producing 50% of the maximal response to each peptide) were calculated. pD2 transforms [−log EC50 (M)] were calculated for each concentration-response curve and reported as the mean±SE. Peptide binding affinity to the C5aR was evaluated on intact human PMNs by a competition assay using ^125I-C5a according to previously described methods (Sanderson et al., 1995, supra; Finch et al., 1997, supra). Statistical analysis of the values obtained from pharmacologic assays was performed using one-way analysis of variance (ANOVA).

Consider FPGWAEPDSNGSAGSEDAQLYSFKPMPLaR, for which the “antibody concentration at which binding to free κR(33-52) was detectable” value with κR(33-52) peptide (protein A-purified antibody from immunized rabbits) is “less than 0.1 ng/ml”. Further, the ED50 titer in the data set on κR(33-52) peptide (protein A-purified antibody, multiple bleedings) was in the range of 1 to 10 ng/mL. The “serum titer against free κR(33-52) peptide” value with κR(33-52) peptide (rabbits, 500 μg s.c. in Freund's adjuvant) is recorded as “approximately 10^5”.
`CSCC[C@H](NC(=O)[C@@H]1CCCN1C(=O)[C@H](CCCCN)NC(=O)[C@H](Cc1ccccc1)NC(=O)[C@H](CO)NC(=O)[C@H](Cc1ccc(O)cc1)NC(=O)[C@@H](NC(=O)[C@H](CCCNC(=N)N)NC(=O)[C@H](C)NC(=O)[C@H](Cc1ccccc1)NC(=O)[C@H](C)NC(=O)[C@@H](NC(=O)[C@H](CO)NC(=O)[C@H](CC(C)C)NC(=O)[C@@H](N)Cc1c[nH]cn1)[C@@H](C)O)C(C)C)C(=O)N1CCC[C@H]1C(=O)N[C@@H](CC(C)C)C(=O)N[C@H](C)C(=O)N[C@@H](CCCNC(=N)N)C(=O)O` (H-HLSTAFARVYSFKPMPL[dA]R-OH): the “cytotoxicity against SKRC-1 (in words)” value in the data set with SKRC-1 is “exhibited cytotoxicity”. The “cytotoxicity against SKRC-52 (in words)” value in the data set on SKRC-52 is “significant cytotoxicity”.
On to `CC[C@H](C)[C@H](NC(=O)[C@H](CC(=O)O)NC(=O)[C@H](Cc1ccccc1)NC(=O)[C@H](CC(C)C)NC(=O)[C@H](C)N)C(=O)N[C@@H](CCC(=O)O)C(=O)N[C@@H](CO)C(=O)N[C@@H](CCCCN)C(=O)N[C@H](C(=O)O)C(C)C` [PSMA p2], for which the “cytotoxicity against A-375 (in words)” value in data set [1] is “not cytotoxic”. Also, in the data set with BEAS-2B epithelial cells, the “cytotoxicity against BEAS-2B (in words)” value is given as “not cytotoxic”. The “cytotoxicity against LNCaP (in words)” value in the data set with LNCaP cells is on record as “did not exhibit significant cytotoxicity”.
On to `CC(C)C[C@H](NC(=O)[C@@H](N)CC(C)C)C(=O)N[C@@H](Cc1c[nH]cn1)C(=O)N[C@@H](CCC(=O)O)C(=O)N[C@H](C(=O)N[C@@H](CC(=O)O)C(=O)N[C@@H](CO)C(=O)N[C@@H](C)C(=O)N[C@H](C(=O)O)C(C)C)[C@@H](C)O` [PSMA p1], for which the “cytotoxicity against A-375 (in words)” value in data set [1] was “not cytotoxic”. Besides, the “cytotoxicity against BEAS-2B (in words)” value with BEAS-2B epithelial cells is “not cytotoxic”. Also, the “cytotoxicity against LNCaP (in words)” value in the data set with LNCaP cells was “did not exhibit significant cytotoxicity”.
With `CC[C@H](C)[C@H](NC(=O)[C@H](CCCNC(=N)N)NC(=O)[C@H](CCCNC(=N)N)NC(=O)[C@H](CCCNC(=N)N)NC(=O)[C@@H](C)NC(=O)[C@H](CC(C)C)NC(=O)[C@@H]1CCCN1C(=O)[C@H](CCSC)NC(=O)[C@@H]1CCCN1C(=O)[C@H](CCCCN)NC(=O)[C@H](Cc1ccccc1)NC(=O)[C@H](CO)NC(=O)[C@@H](N)Cc1ccc(O)cc1)C(=O)N1CCC[C@H]1C(=O)N[C@@H](CCC(N)=O)C(=O)N[C@@H](CO)C(=O)N[C@@H](CC(C)C)C(=O)N[C@@H](CC(=O)O)C(=O)N[C@@H](CO)C(=O)N[C@@H](Cc1c[nH]c2ccccc12)C(=O)N[C@@H](Cc1c[nH]c2ccccc12)C(=O)N[C@H](C(=O)N[C@@H](CO)C(=O)N[C@@H](CC(C)C)C(=O)O)[C@@H](C)O`, in the data set with human umbilical artery, the “potency in umbilical artery contraction (in words)” value is “significantly less potent”, the response was half-maximal at 39.4 µM (EC50) and the “pD2 ± SE” value was found to be 4.41 ± 0.06. Besides, in the data set on human PMNs, the “MPO release from PMNs (in words)” value was “inactive” and the “pD2 ± SE” value is given as more than 3. Also, the “binding to the C5aR (in words)” value on C5aRs on Human PMNs is given as “bound poorly”.
`CSCC[C@H](NC(=O)[C@@H]1CCCN1C(=O)[C@H](CCCCN)NC(=O)[C@H](Cc1ccccc1)NC(=O)[C@H](CO)NC(=O)[C@H](Cc1ccc(O)cc1)NC(=O)[C@H](CCCNC(=N)N)NC(=O)[C@H](CCCNC(=N)N)NC(=O)[C@@H](NC(=O)[C@H](CCCNC(=N)N)NC(=O)[C@H](C)NC(=O)[C@H](Cc1ccccc1)NC(=O)[C@H](C)NC(=O)[C@@H](NC(=O)[C@H](CO)NC(=O)[C@H](CC(C)C)NC(=O)[C@@H](N)Cc1c[nH]cn1)[C@@H](C)O)C(C)C)C(=O)N1CCC[C@H]1C(=O)N[C@@H](CC(C)C)C(=O)N[C@H](C)C(=O)N[C@@H](CCCNC(=N)N)C(=O)O` (H-HLSTAFARVRRYSFKPMPL[dA]R-OH): in the data set with SKRC-1, the “cytotoxicity against SKRC-1 (in words)” value was “exhibited cytotoxicity”. Further, the “cytotoxicity against SKRC-52 (in words)” value in the data set on SKRC-52 is listed as “significant cytotoxicity”.
For `CC[C@H](C)[C@H](N)C(=O)N1CCC[C@H]1C(=O)N[C@@H](CCC(N)=O)C(=O)N[C@@H](CO)C(=O)N[C@@H](CC(C)C)C(=O)N[C@@H](CC(=O)O)C(=O)N[C@@H](CO)C(=O)N[C@@H](Cc1c[nH]c2ccccc12)C(=O)N[C@@H](Cc1c[nH]c2ccccc12)C(=O)N[C@H](C(=O)N[C@@H](CO)C(=O)N[C@@H](CC(C)C)C(=O)N[C@@H](CCCNC(=N)N)C(=O)N[C@@H](CCCNC(=N)N)C(=O)N[C@@H](Cc1ccc(O)cc1)C(=O)N[C@@H](CO)C(=O)N[C@@H](Cc1ccccc1)C(=O)N[C@@H](CCCCN)C(=O)N1CCC[C@H]1C(=O)N[C@@H](CCSC)C(=O)N1CCC[C@H]1C(=O)N[C@@H](CC(C)C)C(=O)N[C@H](C)C(=O)N[C@@H](CCCNC(=N)N)C(=O)NCC(=O)O)[C@@H](C)O` (H-IPQSLDSWWTSLRRYSFKPMPL[dA]RG-OH), in the data set with human umbilical artery, the “potency in umbilical artery contraction (in words)” value is listed as “significantly less potent”, the EC50 amounted to 6.78 µM and the “pD2 ± SE” value worked out at 5.17 ± 0.13. Moreover, in the data set with human PMNs, the “MPO release from PMNs (in words)” value is reported as “unable to induce a full response” and the “pD2 ± SE” value amounted to 5.59 ± 0.28. In the data set on human PMNs (50% maximum release of myeloperoxidase), this molecule yielded an EC50 of 2.56 µM. The “binding to the C5aR (in words)” value at C5aRs on Human PMNs is “significantly less affinity”.
